# From article PMC12040169 (PLOS Biology, 2025)
# Assay: in vitro
# Conditions: human, hela cells, % viability
row,Structure (SMILES),"viability at 28.5 h, 10 µM [%]"
1,Cc1ccc(C(=O)COC(=O)C(Cc2ccccc2)N2C(=O)c3cc(Cl)c(Cl)cc3C2=O)cc1 (stereo not drawn) [CBK264176],109
2,CCCCn1c(NCc2nc3ccccc3n2C)nc2ccccc21 [CBK264177],87.2
3,COc1ccc(C2NCCc3c2[nH]c2ccccc32)cc1CN1CCN(c2ccc(F)cc2)CC1 (stereo not drawn) [CBK264178C],81.7
4,COc1cc(NC(=O)COc2ccc3ccccc3c2)c(C(=O)O)cc1OC [CBK264181],103
5,COc1cc(C(=O)N2CCN(S(=O)(=O)c3ccccc3[N+](=O)[O-])CC2)cc(OC)c1OC [CBK264182],105
6,N=C(N)NS(=O)(=O)c1ccc(N/C=C\C(=O)c2ccncc2)cc1 [CBK264185],91.8
7,O=S(=O)(c1ccc2ccccc2c1)N1CCN(C2CCCCCCC2)CC1 [CBK264186G],98.3
8,COc1ccc(OC)c(-c2nc(Nc3ccccc3Cl)sc2CC(=O)O)c1 [CBK264190],96.4
9,Cc1ccc(C)c(NC(=O)CN(Cc2ccc(Cl)c(Cl)c2)S(=O)(=O)c2ccccc2)c1 [CBK264191],107
10,CCOC(=O)C1CCCN(CCC(=O)Nc2ccccc2)C1 (stereo not drawn) [CBK264192C],91.7
11,COc1cc(NC(=O)CCN2CCN(C)CC2)cc(OC)c1 [CBK264193],92.5
12,COc1ccccc1CC(=O)Nc1ccc(OCC(=O)O)cc1 [CBK264194],99.1
13,Cc1ccccc1OCCNS(=O)(=O)c1cccc([N+](=O)[O-])c1 [CBK264195],106
14,O=C(c1ccncc1)N1CCN(S(=O)(=O)c2ccccc2[N+](=O)[O-])CC1 [CBK264196],92.6
15,CN1CCN(CCC(=O)Nc2ccc3c(c2)CCC3)CC1 [CBK264197],95.3
16,Cc1ccc(S(=O)(=O)N(C)CC(=O)N(C)Cc2ccccc2)cc1 [CBK264201],95.5
17,O=C(CCN1CCc2ccccc2C1)Nc1ccccc1F [CBK264202],94.9
18,COc1ccc(CN2CCN(S(=O)(=O)c3ccc(Cl)cc3)CC2)cc1OC [CBK264204G],104
19,COc1cccc(NC(=O)CCN2CCN(CCO)CC2)c1 [CBK264207C],88.3
20,O=C(c1cccnc1)N1CCN(S(=O)(=O)c2ccc(F)cc2)CC1 [CBK264210],92.8
21,COc1ccc(OCC(=O)N2CCN(S(=O)(=O)c3ccccc3[N+](=O)[O-])CC2)cc1 [CBK264213],93.5

row,Structure (SMILES),"viability at 28.5 h, 10 µM [%]"
1,Cc1ccc(S(=O)(=O)Nc2ccccc2CNc2ccc(Br)cc2)cc1 [CBK264214],94.5
2,O=C(O)CCC(=O)Nc1ccc(OC(F)F)cc1 [CBK264222],99.8
3,Cc1c(C(=O)NC(=S)Nc2ccc(O)c(-c3nc4ccccc4s3)c2)oc2ccccc12 [CBK264223],93.2
4,COc1ccc(CN2CCN(Cc3ccco3)CC2)cc1OCc1ccccc1 [CBK264225],105
5,O=C(O)c1ccc(S(=O)(=O)c2ccc3c(c2)C(=O)N(NC(=O)c2ccc(O)cc2)C3=O)cc1 [CBK264229],102
6,CC(=O)Nc1ccc(S(=O)(=O)N2CCN(Cc3ccc([N+](=O)[O-])cc3)CC2)cc1 [CBK264231G],94.3
7,Cc1cc2nc(SCc3nc4ccccc4[nH]3)[nH]c2cc1C [CBK264233],97.4
8,O=[N+]([O-])c1ccccc1S(=O)(=O)N1CCN(S(=O)(=O)c2ccc(F)cc2)CC1 [CBK264236],92.7
9,c1ccc(CCCN2CCN(Cc3cccc4ccccc34)CC2)cc1 [CBK264237],103
10,COc1ccc(CC(=O)Nc2ccc(OCC(=O)O)cc2)cc1 [CBK264244],103
11,COc1ccc(N2CCN(c3nc(OC)nc(OC)n3)CC2)cc1 [CBK264245],100
12,COc1cc(/C=N/n2cnnc2)ccc1OCc1cccc(C(=O)O)c1 [CBK264249],108
13,O=C(O)COc1ccc(NC(=O)C(c2ccccc2)c2ccccc2)cc1 [CBK264250],99.6
14,CCOC(=O)C1CCN(CCC(=O)Nc2ccc(F)c(F)c2)CC1 [CBK264252],112
15,CC(C)CC(C(=O)Nc1ccc(Br)cc1)N1C(=O)c2ccccc2C1=O (stereo not drawn) [CBK264253],94.1
16,COc1ccccc1N1CCN(CCC(=O)Nc2cccc(F)c2)CC1 [CBK264254C],92.8
17,CCc1ccc(-n2nc3ccc(NC(=S)NC(=O)c4cc5ccccc5o4)cc3n2)cc1 [CBK264258],101
18,O=C(O)COc1ccc(N2C(=O)c3ccc(Oc4cccc([N+](=O)[O-])c4)cc3C2=O)cc1 [CBK264259],107
19,O=C(CCN1CCN(Cc2ccccc2)CC1)Nc1ccc(F)cc1 [CBK264261],77
20,CCOC(=O)c1c(NC(=O)C2CC(Cl)=CCC2C(=O)O)sc2c1CCCCC2 (stereo not drawn) [CBK264263],90.2
21,C(=C\CSC1=NCCN1)/CSC1=NCCN1 [CBK264266],107

row,Structure (SMILES),"viability at 28.5 h, 10 µM [%]"
1,Cc1ccc(OCC(=O)N2CCN(S(=O)(=O)c3ccc([N+](=O)[O-])cc3)CC2)cc1 [CBK264267],103
2,COc1cc(CN2CCN(S(=O)(=O)c3ccc(F)cc3)CC2)cc(OC)c1O [CBK264269G],103
3,CCC(C)N1CCN(S(=O)(=O)c2ccccc2[N+](=O)[O-])CC1 (stereo not drawn) [CBK264270G],97.2
4,CC(=O)Nc1ccc(S(=O)(=O)N2CCN(S(=O)(=O)c3ccc(C)cc3)CC2)cc1 [CBK264276],101
5,CC(C)COc1ccc(-c2nn(-c3ccccc3)cc2CSC(=N)N)cc1 [CBK264278C],0.298
6,CCS(=O)(=O)N1CCN(Cc2ccccc2OC)CC1 [CBK264280G],92.7
7,CC(OC(=O)c1ccc(O)cc1)C(=O)Nc1ccc(Cl)c(Cl)c1 (stereo not drawn) [CBK264281],96.4
8,CCOC(=O)C1CCCN(CCC(=O)Nc2cc(C)ccc2C)C1 (stereo not drawn) [CBK264287C],95.7
9,CCCS(=O)(=O)N1CCN(C(=O)COc2ccc3ccccc3c2)CC1 [CBK264290],95.4
10,COc1ccc(NC(=S)NCCCN(C)C)cc1 [CBK264292],96.2
11,O=C(/C=C/c1ccc(Cl)cc1Cl)NCCNc1c(Cl)cccc1[N+](=O)[O-] [CBK264295],110
12,O=[N+]([O-])c1ccccc1S(=O)(=O)N1CCN(S(=O)(=O)c2ccc3ccccc3c2)CC1 [CBK264296],107
13,O=C(c1cccnc1)N1CCN(S(=O)(=O)c2ccc([N+](=O)[O-])cc2)CC1 [CBK264300],92.5
14,Cc1ccc(C(=O)C(C)OC(=O)c2ccc(NC(=O)c3ccccc3)cc2)cc1 (stereo not drawn) [CBK264302],100
15,COc1ccc(C2NCCc3c2[nH]c2ccccc32)cc1CSc1nc2ccccc2s1 (stereo not drawn) [CBK264303C],96.8
16,O=C(CSc1ccc(Cl)cc1)OCC(=O)c1ccccc1 [CBK264306],106
17,O=C(O)CCC(C(=O)O)N1C(=O)c2c(Cl)c(Cl)c(Cl)c(Cl)c2C1=O (stereo not drawn) [CBK264308],102
18,O=[N+]([O-])c1ccc(S(=O)(=O)N2CCN(S(=O)(=O)c3ccc(Cl)cc3)CC2)cc1 [CBK264312],118
19,CC(=O)Nc1ccc(S(=O)(=O)N2CCN(S(=O)(=O)c3ccccc3[N+](=O)[O-])CC2)cc1 [CBK264314],104
20,N/C(Cc1ccc(Cl)cc1Cl)=N\OC(=O)c1cccc([N+](=O)[O-])c1 [CBK264317],91
21,O=C(NCc1ccncc1)Nc1ccc([N+](=O)[O-])cc1 [CBK264319],110

row,Structure (SMILES),"viability at 28.5 h, 10 µM [%]"
1,Cc1cc(OCC(=O)Nc2nc[nH]n2)ccc1Cl [CBK264321],117
2,Cc1cc(OCC(=O)O/N=C(\N)Cc2ccc([N+](=O)[O-])cc2)ccc1Cl [CBK264322],98.2
3,O=C(C1CCN(Cc2ccc(F)cc2)CC1)N1CCN(C/C=C/c2ccccc2)CC1 [CBK264325G],96.5
4,C/C(=C\c1ccccc1)CN1CCC(C(=O)N2CCN(Cc3ccc4c(c3)OCO4)CC2)CC1 [CBK264327],94.1
5,O=C(/C=C/c1ccccc1)Oc1cccc(NC(=O)C2CC(=O)N(c3ccccc3)C2)c1 (stereo not drawn) [CBK264330],109
6,CC1=CC(c2ccc(Cl)cc2)n2nc(NC(=O)CCC(=O)O)nc2N1 (stereo not drawn) [CBK264331],100
7,OC(CN1CCN(c2cccc(Cl)c2)CC1)Cn1c2ccccc2c2ccccc21 (stereo not drawn) [CBK264333],98.2
8,O=C(O)CNS(=O)(=O)c1ccc2nc(O)c(O)nc2c1 [CBK264334],94.4
9,COc1ccc(C(=O)NCCc2ccc(S(N)(=O)=O)cc2)cc1[N+](=O)[O-] [CBK264335],99.8
10,Cc1ccc(NC(=S)NC(=O)Cc2ccccc2)c(O)c1 [CBK264337],106
11,NS(=O)(=O)c1ccc(NC(=O)c2ccc3ccccc3c2)cc1 [CBK264338],112
12,CC(C)(C)c1ccc(Oc2ccc(NC(=O)CCCC(=O)O)cc2)cc1 [CBK264339],103
13,COC(=O)c1ccc(N2CCN(C)CC2)c([N+](=O)[O-])c1 [CBK264341],99.4
14,O=C(NC(=S)Nc1ccc2oc(-c3ccncc3)nc2c1)c1cc(Br)ccc1Cl [CBK264343],87.8
15,O=C(/C=C/c1ccco1)NC(=S)Nc1ccc(O)c(-c2nc3ccccc3s2)c1 [CBK264344],85.7
16,O=C(CSc1nnc(-c2ccncc2)[nH]1)c1ccc(O)c(O)c1 [CBK264346],86.6
17,CCC(C)c1ccc(NC(=O)CSc2nc3cccnc3[nH]2)cc1 (stereo not drawn) [CBK264349],86.9
18,O=CN1CCN(S(=O)(=O)c2ccc3c(c2)Cc2cc(S(=O)(=O)N4CCN(C=O)CC4)ccc2-3)CC1 [CBK264351],98.8
19,O=C(CSc1nnc(-c2ccncc2)[nH]1)c1ccc(O)cc1O [CBK264353],102

# Same assay, conditions: human, hela cells, % viability, bulk resorufin, single well
row,Structure (SMILES),"viability at 28.5 h, 10 µM [%]"
1,O=C1NC(=S)N(c2ccccc2)C(=O)/C1=C\c1ccc(OCc2ccccc2)c(C(=O)O)c1 [CBK264265],99.1
2,Cc1cc(/C=C2\C(=O)NC(=O)N(C)C2=O)c(C)n1-c1ccc(Oc2ccc([N+](=O)[O-])cn2)cc1 [CBK264294],100
